# According to US20100298141A1, “SUBSTITUTED PYRIDINE N-OXIDE HERBICIDES” (E. I. DU PONT DE NEMOURS AND COMPANY, priority 2007, published 2010):
# Assays:
# lambsquarters = assay: Test C pre-/postemergence test; assay type: in vivo, Chenopodium album
# Method in brief: (§1)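 Test chemicals were formulated with surfactant in a non-phytotoxic solvent and sprayed both on freshly planted seeds (preemergence) and on 1- to 4-leaf plants of 2–18 cm (postemergence). Flooded-paddy pots received compound directly into 3 cm of standing water, maintained for the test.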
# kochia = assay: Test C pre-/postemergence test; assay type: in vivo, Kochia scoparia
# Method in brief: as §1
# morningglory = assay: Test A pre-/postemergence greenhouse test; assay type: in vivo, Ipomoea spp.; conditions: for Morningglory plant response rating: 0 to 100 scale
# Method in brief: (§2)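 Herbicidal effect is a visual injury score given about ten days post-treatment by comparison with untreated controls. Preemergence plots received a directed spray onto sown loam–sand soil; postemergence plants, at the one- to two-leaf stage and 2–10 cm tall, were sprayed at the same time.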
# Surinam grass = assay: Test C pre-/postemergence test; assay type: in vivo, Brachiaria decumbens
# Method in brief: as §1
# common ragweed = assay: Test C pre-/postemergence test; assay type: in vivo, Ambrosia elation
# Method in brief: as §1
# eastern black nightshade = assay: Test C pre-/postemergence test; assay type: in vivo, Solanum ptycanthum
# Excerpt: Seeds of plant species selected from blackgrass (Alopecurus myosuroides), downy brome (Bromus tectorum), green foxtail (Setaria viridis), Italian ryegrass (Lolium multiflorum), wheat (Triticum aestivum), wild oat (Avena fatua), catchweed bedstraw (Galium aparine), Russian thistle (Salsola kali), […] (Cynodon dactylon), Surinam grass (Brachiaria decumbens), cocklebur (Xanthium strumarium), corn (Zea mays), crabgrass (Digitaria sanguinalis), woolly cupgrass (Eriochloa villosa), giant foxtail (Setaria faberii), Goosegrass (Eleusin indica), johnsongrass (Sorghum halepense), kochia (Kochia scoparia), lambsquarters (Chenopodium album), morningglory (Ipomoea coccinea), eastern black nightshade (Solanum ptycanthum), yellow nutsedge (Cyperus esculentus), pigweed (Amaranthus retroflexus), common ragweed (Ambrosia elation), soybean (Glycine max), common (oilseed) sunflower (Helianthus annuus), and velvetleaf (Abutilon theophrasti) were planted and treated preemergence with test chemicals formulated in a non-phytotoxic solvent mixture which included a surfactant. At the same time, plants selected from these crop and weed species and also winter barley (Hordeum vulgare), canarygrass (Phalaris minor), and chickweed (Stellaria media) were treated with postemergence applications of some of the test chemicals formulated in the same manner. Plants ranged in height from 2 to 18 cm (1- to 4-leaf stage) for postemergence treatments. […] At time of treatment, test pots were flooded to 3 cm above the soil surface, treated by application of test compounds directly to the paddy water, and then maintained at that water depth for the duration of the test. […] A dash (-) response means no test result.
# woolly cupgrass = assay: Test C pre-/postemergence test; assay type: in vivo, Eriochloa villosa
# Method in brief: as §1
# [1] = tested on: common (oilseed) sunflower; assay: Test C pre-/postemergence test; assay type: in vivo, Helianthus annuus
# Method in brief: as §1
# redroot pigweed = assay: Test A pre-/postemergence greenhouse test; assay type: in vivo, Amaranthus retroflexus; conditions: for Pigweed plant response rating: 0 to 100 scale
# Method in brief: as §2
# giant foxtail [2] = assay: Test A pre-/postemergence greenhouse test; assay type: in vivo, Setaria faberi; conditions: for Foxtail, Giant plant response rating: 0 to 100 scale
# Method in brief: as §2
# cocklebur = assay: Test C pre-/postemergence test; assay type: in vivo, Xanthium strumarium
# Method in brief: as §1
# wheat = assay: Test A pre-/postemergence greenhouse test; assay type: in vivo, Triticum aestivum; conditions: for Wheat plant response rating: 0 to 100 scale
# Method in brief: as §2
# velvetleaf = assay: Test C pre-/postemergence test; assay type: in vivo, Abutilon theophrasti
# Method in brief: as §1
# giant foxtail [3] = assay: Test C pre-/postemergence test; assay type: in vivo, Setaria faberii
# Method in brief: as §1
# [4] = 62 g ai/ha, Preemergence, scale 0 to 100
# [5] = 125 g ai/ha, preemergence, scale 0 (no effect) to 100 (complete control)
# [6] = Preemergence, 31 g ai/ha, scale 0 to 100 (0 no effect, 100 complete control)
# [7] = preemergence, 250 g ai/ha, scale 0 (no effect) to 100 (complete control)
# [8] = Postemergence, 125 g ai/ha, 0 is no effect, 100 is complete control
# [9] = Postemergence, 500 g ai/ha, 0 is no effect, 100 is complete control
# [10] = Preemergence, 125 g ai/ha, 0 no effect, 100 complete control
# [11] = Preemergence, 500 g ai/ha, 0 to 100 scale where 0 is no effect and 100 is complete control
smiles,measurement,setting,value
Cn1nc(C(F)(F)F)c(C[S+]([O-])c2cc(Cl)cc[n+]2[O-])c1Cl (racemic) [Compound 39],Lambsquarters plant response rating,lambsquarters; [4],80
same,Lambsquarters plant response rating,lambsquarters; [5],100
same,"Plant response rating, Lambsquarters",lambsquarters; [6],75
same,Lambsquarters plant response rating,lambsquarters; [7],100
same,Kochia plant response rating,kochia; [4],0
same,Kochia plant response rating,kochia; [5],60
same,"Plant response rating, Kochia",kochia; [6],0
same,Kochia plant response rating,kochia; [7],100
same,Morningglory plant response rating,morningglory; [8],60
same,Morningglory plant response rating,morningglory; [9],100
same,Morningglory plant response rating,morningglory; [10],80
same,"Plant response rating, Morningglory",morningglory; [11],100
same,Surinam Grass plant response rating,Surinam grass; [4],80
same,Surinam Grass plant response rating,Surinam grass; [5],90
same,"Plant response rating, Surinam Grass",Surinam grass; [6],60
same,Surinam Grass plant response rating,Surinam grass; [7],90
same,Ragweed plant response rating,common ragweed; [4],0
same,Ragweed plant response rating,common ragweed; [5],90
same,Ragweed plant response rating,common ragweed; [7],90
same,Nightshade plant response rating,eastern black nightshade; [4],90
same,Nightshade plant response rating,eastern black nightshade; [5],95
same,"Plant response rating, Nightshade",eastern black nightshade; [6],75
same,Nightshade plant response rating,eastern black nightshade; [7],98
same,"Cupgrass, Woolly plant response rating",woolly cupgrass; [4],85
same,"Cupgrass, Woolly plant response rating",woolly cupgrass; [5],85
same,"Plant response rating, Cupgrass, Woolly",woolly cupgrass; [6],40
same,"Cupgrass, Woolly plant response rating",woolly cupgrass; [7],85
same,Sunflower plant response rating,[1]; [4],0
same,Sunflower plant response rating,[1]; [5],0
same,"Plant response rating, Sunflower",[1]; [6],0
same,Sunflower plant response rating,[1]; [7],75
same,Pigweed plant response rating,redroot pigweed; [8],60
same,Pigweed plant response rating,redroot pigweed; [9],100
same,Pigweed plant response rating,redroot pigweed; [10],100
same,"Plant response rating, Pigweed",redroot pigweed; [11],100
same,"Foxtail, Giant plant response rating",giant foxtail [2]; [8],80
same,"Foxtail, Giant plant response rating",giant foxtail [2]; [9],90
same,"Foxtail, Giant plant response rating",giant foxtail [2]; [10],100
same,"Plant response rating, Foxtail, Giant",giant foxtail [2]; [11],100
same,Cocklebur plant response rating,cocklebur; [4],0
same,Cocklebur plant response rating,cocklebur; [5],0
same,"Plant response rating, Cocklebur",cocklebur; [6],0
same,Cocklebur plant response rating,cocklebur; [7],0
same,Wheat plant response rating,wheat; [8],60
same,Wheat plant response rating,wheat; [9],60
same,Wheat plant response rating,wheat; [10],50
same,"Plant response rating, Wheat",wheat; [11],70
same,Velvetleaf plant response rating,velvetleaf; [4],45
same,Velvetleaf plant response rating,velvetleaf; [5],60
same,"Plant response rating, Velvetleaf",velvetleaf; [6],30
same,Velvetleaf plant response rating,velvetleaf; [7],100
same,"Foxtail, Giant plant response rating",giant foxtail [3]; [4],90
same,"Plant response rating, Foxtail, Giant",giant foxtail [3]; [6],20
same,"Foxtail, Giant plant response rating",giant foxtail [3]; [7],90
